Data taken from PubChem BioAssay (NCI).
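The compound was tested at five concentrations on cells cultured in 96-well plates, with a 48-hour exposure period. Definition used: TGI = concentration required for complete inhibition of growth.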

Columns and labels:
Assay in all cases: growth of human tumour cells (NCI), 48 h
SF-268 CNS = tested on: SF-268 CNS
EKVX NSCLC = tested on: EKVX NSCLC
RXF 393 renal = tested on: RXF 393 renal
LXFL 529 NSCLC = tested on: LXFL 529 NSCLC
IGROV1 ovarian = tested on: IGROV1 ovarian
SF-295 CNS = tested on: SF-295 CNS
A549 NSCLC = tested on: A549 NSCLC
SF-539 CNS = tested on: SF-539 CNS
HL-60(TB) leukemia = tested on: HL-60(TB) leukemia
UO-31 renal = tested on: UO-31 renal
SR leukemia = tested on: SR leukemia
KM12 colon = tested on: KM12 colon
SK-MEL-2 melanoma = tested on: SK-MEL-2 melanoma
SK-MEL-5 melanoma = tested on: SK-MEL-5 melanoma
DLD-1 colon = tested on: DLD-1 colon
XF 498 CNS = tested on: XF 498 CNS
LOX IMVI melanoma = tested on: LOX IMVI melanoma
ACHN renal = tested on: ACHN renal
UACC-257 melanoma = tested on: UACC-257 melanoma
OVCAR-3 ovarian = tested on: OVCAR-3 ovarian
DMS 273 small cell lung = tested on: DMS 273 small cell lung
COLO 205 colon = tested on: COLO 205 colon
OVCAR-5 ovarian = tested on: OVCAR-5 ovarian
HCT-15 colon = tested on: HCT-15 colon
DMS 114 small cell lung = tested on: DMS 114 small cell lung
SW-620 colon = tested on: SW-620 colon
RXF-631 renal = tested on: RXF-631 renal
CCRF-CEM leukemia = tested on: CCRF-CEM leukemia
786-0 renal = tested on: 786-0 renal
NCI-H522 lung = tested on: NCI-H522 lung
M19-MEL melanoma = tested on: M19-MEL melanoma
OVCAR-4 ovarian = tested on: OVCAR-4 ovarian
SN12C renal = tested on: SN12C renal
MOLT-4 leukemia = tested on: MOLT-4 leukemia
CAKI-1 renal = tested on: CAKI-1 renal
MALME-3M melanoma = tested on: MALME-3M melanoma
U251 CNS = tested on: U251 CNS
NCI-H460 lung = tested on: NCI-H460 lung
SNB-19 CNS = tested on: SNB-19 CNS
HOP-62 NSCLC = tested on: HOP-62 NSCLC
UACC-62 melanoma = tested on: UACC-62 melanoma
HCC-2998 colon = tested on: HCC-2998 colon
SNB-75 CNS = tested on: SNB-75 CNS
K-562 leukemia = tested on: K-562 leukemia
TK-10 renal = tested on: TK-10 renal
A498 renal = tested on: A498 renal
HCT-116 colon = tested on: HCT-116 colon
HOP-92 NSCLC = tested on: HOP-92 NSCLC
NCI-H226 lung = tested on: NCI-H226 lung
HOP-18 NSCLC = tested on: HOP-18 NSCLC
RPMI-8226 leukemia = tested on: RPMI-8226 leukemia
M14 melanoma = tested on: M14 melanoma
HT29 colon = tested on: HT29 colon
NCI-H23 lung = tested on: NCI-H23 lung
KM20L2 colon = tested on: KM20L2 colon
SK-OV-3 ovarian = tested on: SK-OV-3 ovarian
SNB-78 CNS = tested on: SNB-78 CNS
OVCAR-8 ovarian = tested on: OVCAR-8 ovarian

Measured: TGI

COc1ccc(OC)c(NC(=O)CCC/C(CC(=O)c2ccc(O)c(OC)c2)=N\Nc2ccc([N+](=O)[O-])cc2)c1
85.6 µM: HOP-92 NSCLC
79 µM: SNB-75 CNS
78.6 µM: RXF 393 renal
> 100 µM: all other assays above
